Laboratory results taken from the kinase profiling compilation of Christmann-Franck et al. (2016).

Key:
Assay in all cases: KINOMEscan competition binding
[1] = target: ANKK1 (human) (UniProt Q8NFD2); conditions: compound 10.0 µM
[2] = target: CDC42BPB (human) (UniProt Q9Y5S2); conditions: compound 10.0 µM
[3] = target: CDK19 (human) (UniProt Q9BWU1); conditions: compound 10.0 µM
[4] = target: CDK4 CCND3 (human) (UniProt P11802+P30281); conditions: compound 10.0 µM
[5] = target: CDK7 (human) (UniProt P50613); conditions: compound 10.0 µM
[6] = target: CDKL3 (human) (UniProt Q8IVW4); conditions: compound 10.0 µM
Chain of CDKL3 (human) (Q8IVW4 whole entry, looked up): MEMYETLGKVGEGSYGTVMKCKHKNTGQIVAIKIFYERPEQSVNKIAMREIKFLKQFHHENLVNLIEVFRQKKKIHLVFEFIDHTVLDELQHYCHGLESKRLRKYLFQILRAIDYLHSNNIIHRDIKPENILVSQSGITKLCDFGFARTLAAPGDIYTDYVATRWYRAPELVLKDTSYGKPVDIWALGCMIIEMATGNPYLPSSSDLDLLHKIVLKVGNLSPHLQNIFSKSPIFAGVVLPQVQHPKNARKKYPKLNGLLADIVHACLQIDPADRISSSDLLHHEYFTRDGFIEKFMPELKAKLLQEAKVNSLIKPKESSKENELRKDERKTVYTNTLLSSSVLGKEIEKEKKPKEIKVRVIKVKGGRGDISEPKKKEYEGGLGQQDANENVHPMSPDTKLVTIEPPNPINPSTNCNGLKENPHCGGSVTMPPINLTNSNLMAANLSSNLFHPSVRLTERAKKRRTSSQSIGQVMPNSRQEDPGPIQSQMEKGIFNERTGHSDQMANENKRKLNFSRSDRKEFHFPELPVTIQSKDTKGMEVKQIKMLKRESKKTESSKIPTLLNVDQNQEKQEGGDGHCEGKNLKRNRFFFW

[7] = target: CLK2 (human) (UniProt P49760); conditions: compound 10.0 µM
[8] = target: DAPK3 (human) (UniProt O43293); conditions: compound 10.0 µM
[9] = target: DCLK2 (human) (UniProt Q8N568)
Chain of DCLK2 (human) (Q8N568 whole entry, looked up): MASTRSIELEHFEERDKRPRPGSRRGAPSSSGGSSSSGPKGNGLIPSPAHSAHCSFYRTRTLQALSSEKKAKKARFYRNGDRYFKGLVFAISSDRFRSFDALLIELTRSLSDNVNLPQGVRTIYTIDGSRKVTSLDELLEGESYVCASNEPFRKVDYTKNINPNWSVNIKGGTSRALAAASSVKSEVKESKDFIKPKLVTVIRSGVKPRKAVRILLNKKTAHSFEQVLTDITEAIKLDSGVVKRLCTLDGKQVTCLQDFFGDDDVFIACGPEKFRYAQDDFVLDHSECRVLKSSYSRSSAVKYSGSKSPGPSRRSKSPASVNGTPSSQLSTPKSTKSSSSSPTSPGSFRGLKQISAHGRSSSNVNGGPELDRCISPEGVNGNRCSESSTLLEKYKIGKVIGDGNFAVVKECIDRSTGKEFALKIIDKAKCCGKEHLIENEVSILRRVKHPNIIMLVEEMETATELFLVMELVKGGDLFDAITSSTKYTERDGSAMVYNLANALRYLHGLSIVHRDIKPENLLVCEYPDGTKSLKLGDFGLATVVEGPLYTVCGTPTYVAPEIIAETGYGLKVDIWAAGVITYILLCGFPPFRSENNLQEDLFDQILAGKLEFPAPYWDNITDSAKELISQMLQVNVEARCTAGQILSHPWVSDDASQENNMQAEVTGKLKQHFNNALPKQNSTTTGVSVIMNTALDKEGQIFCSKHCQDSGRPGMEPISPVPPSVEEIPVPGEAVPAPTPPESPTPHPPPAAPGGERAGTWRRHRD

[10] = target: EPHB3 (human) (UniProt P54753); conditions: compound 10.0 µM
[11] = target: ERN1 (human) (UniProt O75460); conditions: compound 10.0 µM
[12] = target: FGFR2 (human) (UniProt P21802); conditions: compound 10.0 µM
[13] = target: FLT4 (human) (UniProt P35916); conditions: compound 10.0 µM
[14] = target: FRK (human) (UniProt P42685); conditions: compound 10.0 µM
[15] = target: MAP3K11 (human) (UniProt Q16584); conditions: compound 10.0 µM
[16] = target: MAP3K15 (human) (UniProt Q6ZN16); conditions: compound 10.0 µM
[17] = target: MAP4K2 (human) (UniProt Q12851); conditions: compound 10.0 µM
Chain of MAP4K2 (human) (Q12851 whole entry, looked up): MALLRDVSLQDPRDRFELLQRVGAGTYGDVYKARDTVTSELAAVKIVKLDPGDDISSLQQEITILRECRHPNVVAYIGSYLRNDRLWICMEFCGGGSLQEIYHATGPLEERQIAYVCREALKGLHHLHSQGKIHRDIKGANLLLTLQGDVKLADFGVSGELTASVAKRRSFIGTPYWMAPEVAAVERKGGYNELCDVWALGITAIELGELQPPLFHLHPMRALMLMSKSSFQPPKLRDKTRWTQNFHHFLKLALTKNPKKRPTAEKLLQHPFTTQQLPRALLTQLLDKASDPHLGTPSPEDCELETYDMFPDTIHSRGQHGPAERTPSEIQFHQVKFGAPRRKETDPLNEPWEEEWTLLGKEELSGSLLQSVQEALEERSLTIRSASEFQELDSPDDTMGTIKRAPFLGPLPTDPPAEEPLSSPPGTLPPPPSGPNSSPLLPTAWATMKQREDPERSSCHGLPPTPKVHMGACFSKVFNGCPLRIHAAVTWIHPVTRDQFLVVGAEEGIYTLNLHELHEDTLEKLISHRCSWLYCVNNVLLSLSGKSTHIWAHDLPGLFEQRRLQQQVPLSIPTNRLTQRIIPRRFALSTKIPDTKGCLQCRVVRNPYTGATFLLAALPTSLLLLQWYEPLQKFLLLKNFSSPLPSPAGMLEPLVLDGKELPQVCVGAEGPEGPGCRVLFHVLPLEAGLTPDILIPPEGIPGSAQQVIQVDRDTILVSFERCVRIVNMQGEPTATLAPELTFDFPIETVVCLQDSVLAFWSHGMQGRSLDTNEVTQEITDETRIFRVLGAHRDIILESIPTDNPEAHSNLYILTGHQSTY

[18] = target: MAPK14 (human) (UniProt Q16539); conditions: compound 10.0 µM
[19] = target: MAPK15 (human) (UniProt Q8TD08); conditions: compound 10.0 µM
[20] = target: MET (human) (UniProt P08581); conditions: compound 10.0 µM
[21] = target: PIK3CD (human) (UniProt O00329); conditions: compound 10.0 µM
Chain of PIK3CD (human) (O00329 whole entry, looked up): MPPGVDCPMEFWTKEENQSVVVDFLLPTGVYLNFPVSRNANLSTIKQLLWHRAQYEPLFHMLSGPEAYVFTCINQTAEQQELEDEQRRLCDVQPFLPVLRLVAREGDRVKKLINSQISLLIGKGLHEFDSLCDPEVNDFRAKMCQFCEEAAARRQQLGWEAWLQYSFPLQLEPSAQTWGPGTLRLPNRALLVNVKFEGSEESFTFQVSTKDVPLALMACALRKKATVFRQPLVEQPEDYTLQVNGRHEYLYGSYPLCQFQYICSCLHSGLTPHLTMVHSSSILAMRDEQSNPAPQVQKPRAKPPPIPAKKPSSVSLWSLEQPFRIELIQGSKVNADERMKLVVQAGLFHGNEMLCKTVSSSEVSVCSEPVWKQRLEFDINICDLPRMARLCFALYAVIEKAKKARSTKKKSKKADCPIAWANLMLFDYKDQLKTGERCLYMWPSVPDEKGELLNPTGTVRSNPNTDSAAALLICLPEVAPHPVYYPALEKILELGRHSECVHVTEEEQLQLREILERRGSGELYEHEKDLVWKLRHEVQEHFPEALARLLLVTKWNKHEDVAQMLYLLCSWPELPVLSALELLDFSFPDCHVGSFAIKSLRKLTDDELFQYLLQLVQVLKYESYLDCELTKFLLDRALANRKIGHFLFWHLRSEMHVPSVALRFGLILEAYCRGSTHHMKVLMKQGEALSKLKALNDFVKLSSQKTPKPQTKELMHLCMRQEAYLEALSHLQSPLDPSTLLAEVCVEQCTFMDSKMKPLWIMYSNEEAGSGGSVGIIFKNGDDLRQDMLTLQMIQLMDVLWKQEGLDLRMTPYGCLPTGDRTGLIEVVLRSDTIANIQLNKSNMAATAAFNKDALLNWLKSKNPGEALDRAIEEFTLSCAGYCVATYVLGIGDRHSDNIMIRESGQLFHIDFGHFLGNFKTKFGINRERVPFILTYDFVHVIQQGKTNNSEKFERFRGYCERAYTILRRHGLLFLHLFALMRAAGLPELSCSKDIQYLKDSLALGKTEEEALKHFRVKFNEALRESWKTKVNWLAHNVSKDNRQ

[22] = target: PIP5K1A (human) (UniProt Q99755); conditions: compound 10.0 µM
[23] = target: PKN3 (M.tuberculosis) (UniProt Q6P5Z2); conditions: compound 10.0 µM
[24] = target: PRKX (human) (UniProt P51817); conditions: compound 10.0 µM
[25] = target: RAF1 (human) (UniProt P04049); conditions: compound 10.0 µM
[26] = target: RET (human) (UniProt P07949); conditions: compound 10.0 µM
[27] = target: RPS6KA4 KD2 (human) (UniProt O75676); conditions: compound 10.0 µM
[28] = target: RPS6KB1 (human) (UniProt P23443); conditions: compound 10.0 µM
Chain of RPS6KB1 (human) (P23443 whole entry, looked up): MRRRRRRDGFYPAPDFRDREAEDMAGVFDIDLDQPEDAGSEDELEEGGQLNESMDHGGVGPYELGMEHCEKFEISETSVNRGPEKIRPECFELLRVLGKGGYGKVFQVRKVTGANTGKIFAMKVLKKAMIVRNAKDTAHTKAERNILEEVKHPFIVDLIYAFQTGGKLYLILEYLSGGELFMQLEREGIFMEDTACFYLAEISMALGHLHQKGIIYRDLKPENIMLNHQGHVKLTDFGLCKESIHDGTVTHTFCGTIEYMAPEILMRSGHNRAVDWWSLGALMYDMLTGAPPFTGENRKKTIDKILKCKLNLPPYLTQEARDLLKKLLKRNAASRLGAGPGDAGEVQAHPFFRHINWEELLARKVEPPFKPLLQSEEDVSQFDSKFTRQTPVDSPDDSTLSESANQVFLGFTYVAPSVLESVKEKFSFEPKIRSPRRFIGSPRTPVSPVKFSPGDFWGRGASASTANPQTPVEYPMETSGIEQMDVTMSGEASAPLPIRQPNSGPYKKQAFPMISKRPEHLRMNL

[29] = target: SGK3 (human) (UniProt Q96BR1); conditions: compound 10.0 µM
[30] = target: SLK (human) (UniProt Q9H2G2); conditions: compound 10.0 µM
[31] = target: STK17A (human) (UniProt Q9UEE5); conditions: compound 10.0 µM
[32] = target: STK32C (human) (UniProt Q86UX6); conditions: compound 10.0 µM
Chain of STK32C (human) (Q86UX6 whole entry, looked up): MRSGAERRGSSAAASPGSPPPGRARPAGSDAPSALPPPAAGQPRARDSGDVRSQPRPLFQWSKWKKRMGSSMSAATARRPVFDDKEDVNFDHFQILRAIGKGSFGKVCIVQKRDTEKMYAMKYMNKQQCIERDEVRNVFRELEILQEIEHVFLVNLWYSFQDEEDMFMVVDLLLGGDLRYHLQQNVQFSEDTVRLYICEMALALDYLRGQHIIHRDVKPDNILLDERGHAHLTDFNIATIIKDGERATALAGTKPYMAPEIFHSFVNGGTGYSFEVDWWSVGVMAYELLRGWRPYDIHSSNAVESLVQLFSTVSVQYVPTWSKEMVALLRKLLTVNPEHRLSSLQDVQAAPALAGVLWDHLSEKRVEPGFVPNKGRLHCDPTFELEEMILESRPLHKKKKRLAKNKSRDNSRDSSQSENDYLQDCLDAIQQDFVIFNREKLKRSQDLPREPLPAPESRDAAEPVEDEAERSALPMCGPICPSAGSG

[33] = target: TRPM6 (human) (UniProt Q9BX84); conditions: compound 10.0 µM
[34] = target: TXK (human) (UniProt P42681); conditions: compound 10.0 µM
Chain of TXK (human) (P42681 whole entry, looked up): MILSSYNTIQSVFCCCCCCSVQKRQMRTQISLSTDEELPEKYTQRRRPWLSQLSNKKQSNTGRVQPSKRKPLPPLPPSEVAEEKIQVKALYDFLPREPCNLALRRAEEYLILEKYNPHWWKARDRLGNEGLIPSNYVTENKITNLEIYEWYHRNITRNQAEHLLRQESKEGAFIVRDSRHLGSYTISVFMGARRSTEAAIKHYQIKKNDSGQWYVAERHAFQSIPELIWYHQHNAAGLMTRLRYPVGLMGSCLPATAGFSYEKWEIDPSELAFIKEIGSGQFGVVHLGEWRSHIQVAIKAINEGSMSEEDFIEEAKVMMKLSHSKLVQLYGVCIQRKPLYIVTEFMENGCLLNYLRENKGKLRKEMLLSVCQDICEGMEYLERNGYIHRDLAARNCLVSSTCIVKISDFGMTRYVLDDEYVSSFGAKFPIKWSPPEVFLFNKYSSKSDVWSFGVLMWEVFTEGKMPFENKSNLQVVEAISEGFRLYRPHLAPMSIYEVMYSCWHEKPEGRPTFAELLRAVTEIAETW

[35] = target: VRK2 (human) (UniProt Q86Y07); conditions: compound 10.0 µM

## COc1cc(C(=O)N2CCC(N3CCN(C)CC3)CC2)ccc1Nc1ncc2c(n1)N(C)c1ccccc1C(=O)N2C
[1]
  kinase still bound, per cent of control: 100%
[2]
  kinase still bound, per cent of control: 100%
[3]
  residual activity: 100%
[4]
  residual activity: 100%
[5]
  residual activity: 86%
[6]
  residual activity: 83%
[7]
  kinase still bound, per cent of control: 72%
[8]
  kinase still bound, per cent of control: 67%
[9]
  Kd: 16 nM
[9]; compound 10.0 µM
  kinase still bound, per cent of control: 0.45%
[10]
  kinase still bound, per cent of control: 100%
[11]
  kinase still bound, per cent of control: 59%
[12]
  kinase still bound, per cent of control: 95%
[13]
  kinase still bound, per cent of control: 100%
[14]
  kinase still bound, per cent of control: 34%
[15]
  kinase still bound, per cent of control: 100%
[16]
  kinase still bound, per cent of control: 69%
[17]
  kinase still bound, per cent of control: 100%
[18]
  kinase still bound, per cent of control: 87%
[19]
  kinase still bound, per cent of control: 100%
[20]
  kinase still bound, per cent of control: 100%
[21]
  kinase still bound, per cent of control: 62%
[22]
  kinase still bound, per cent of control: 90%
[23]
  kinase still bound, per cent of control: 100%
[24]
  kinase still bound, per cent of control: 99%
[25]
  kinase still bound, per cent of control: 100%
[26]
  kinase still bound, per cent of control: 100%
[27]
  kinase still bound, per cent of control: 46%
[28]
  kinase still bound, per cent of control: 100%
[29]
  kinase still bound, per cent of control: 95%
[30]
  kinase still bound, per cent of control: 100%
[31]
  kinase still bound, per cent of control: 100%
[32]
  kinase still bound, per cent of control: 100%
[33]
  kinase still bound, per cent of control: 100%
[34]
  kinase still bound, per cent of control: 91%
[35]
  kinase still bound, per cent of control: 99%
